Measurements from the supplement of paper PMC10307832.

Assays:
Assay in all cases: relative viability (nuclei count vs DMSO), 5 days (fraction); higher = more cells survive
[1] = compound: Cc1ccc(C(=O)N(CCCN)[C@@H](c2nc3cc(Cl)ccc3c(=O)n2Cc2ccccc2)C(C)C)cc1 [Ispinesib] + CS(=O)(=O)N1CCN(Cc2cc3nc(-c4cccc5[nH]ncc45)nc(N4CCOCC4)c3s2)CC1 [Pictilisib] (partner 1 µM)
In short: (§1)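 Lung cancer cell lines were pin-tool dosed in 1536-well plates on the day after seeding, with either a lone drug or a fixed anchor-drug dose plus five library-drug doses (not always all listed) in √10 steps. Nuclei were counted on 4× images after 5 days. Relative viability is the ratio of treated-well to vehicle-well nuclei counts, with each value a median of duplicate plates.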

[2] = compound: Cc1ccc(C(=O)N(CCCN)[C@@H](c2nc3cc(Cl)ccc3c(=O)n2Cc2ccccc2)C(C)C)cc1 [Ispinesib] + O=C(c1cc(Cc2n[nH]c(=O)c3ccccc23)ccc1F)N1CCN(C(=O)C2CC2)CC1 [Olaparib] (partner 8 µM)
In short: as §1

[3] = compound: Cc1ccc(C(=O)N(CCCN)[C@@H](c2nc3cc(Cl)ccc3c(=O)n2Cc2ccccc2)C(C)C)cc1 [Ispinesib] + Cc1cc(Nc2cc(N3CCN(C)CC3)nc(Sc3ccc(NC(=O)C4CC4)cc3)n2)n[nH]1 [Tozasertib] (partner 0.1 µM)
In short: as §1

[4] = compound: Cc1ccc(C(=O)N(CCCN)[C@@H](c2nc3cc(Cl)ccc3c(=O)n2Cc2ccccc2)C(C)C)cc1 [Ispinesib] + COc1cc2c(Oc3ccc(NC(=O)C4(C(=O)Nc5ccc(F)cc5)CC4)cc3F)ccnc2cc1OCCCN1CCOCC1 [Foretinib] (partner 0.25 µM)
In short: as §1

Cell Line	relative viability ([1]; first compound 0.001 µM)	relative viability ([1]; first compound 0.003162 µM)	relative viability ([1]; first compound 0.01 µM)	relative viability ([1]; first compound 0.03162 µM)	relative viability ([1]; first compound 0.1 µM)	relative viability ([2]; first compound 0.001 µM)	relative viability ([2]; first compound 0.003162 µM)	relative viability ([2]; first compound 0.01 µM)	relative viability ([2]; first compound 0.03162 µM)	relative viability ([2]; first compound 0.1 µM)	relative viability ([3]; first compound 0.001 µM)	relative viability ([3]; first compound 0.003162 µM)	relative viability ([3]; first compound 0.01 µM)	relative viability ([3]; first compound 0.03162 µM)	relative viability ([3]; first compound 0.1 µM)	relative viability ([4]; first compound 0.001 µM)	relative viability ([4]; first compound 0.003162 µM)	relative viability ([4]; first compound 0.01 µM)	relative viability ([4]; first compound 0.03162 µM)	relative viability ([4]; first compound 0.1 µM)
NCI-H1395	0.604	0.663	0.63	0.368	0.383	0.436	0.446	0.439	0.369	0.356	0.778	0.874	0.808	0.58	0.404	1.06	0.998	1.03	0.866	0.356
NCI-H1355	0.418	0.434	0.489	0.252	0.198	0.736	0.806	0.889	0.736	0.328	0.566	0.608	0.548	0.503	0.486	0.991	1.01	1.24	0.95	0.444
NCI-H1650	0.586	0.576	0.338	0.164	0.266	0.953	0.743	0.82	0.701	0.195	0.382	0.364	0.397	0.139	0.257	1.27	1.44	1.12	0.305	0.273
IA-LM	0.484	0.352	0.278	0.173	0.121	0.916	0.938	1.15	1.02	0.155	–	–	–	–	–	1.21	1.51	1.45	1.06	0.132
NCI-H1666	0.42	0.404	0.42	0.302	0.312	0.756	0.801	0.702	0.713	0.663	0.56	0.601	0.613	0.542	0.454	1.03	0.989	0.903	0.918	0.539
HCC-78	0.223	0.198	0.235	–	0.247	0.876	0.82	0.887	0.704	0.59	0.444	0.426	0.521	0.449	0.407	0.558	0.567	0.542	0.525	0.559
H3255	0.456	0.431	0.471	0.335	0.345	0.589	0.597	0.541	0.46	0.394	0.599	0.767	0.717	0.601	0.614	0.932	0.869	0.995	0.508	0.158
NCI-H23	0.441	0.479	0.557	0.251	0.189	0.306	0.379	0.336	0.384	0.175	0.428	0.414	0.74	0.33	0.272	1.05	1.03	1.17	0.934	0.299
